Test results as given in the supplement of paper PMC10307832.

Experiments:
Assay in all cases: relative viability (nuclei count vs DMSO), 5 days (fraction); higher = more cells survive
LU99A = test system: LU99A
In short: (§1)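 Lung cancer cell lines were seeded in 1536-well plates and dosed by pin tool the next day, with either a single drug or a fixed anchor-drug dose combined with five library-drug doses (not always all listed) spaced in √10 steps. Five days later, one step fixed the cells and stained their nuclei (final 0.05% Triton X-100, 1% formaldehyde, 1 ug/ml Hoechst), and nuclei were counted on 4× images. Relative viability is the nuclei count in treated wells divided by the count in vehicle wells, and each value is the median of duplicate plates.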

LXF-289 = test system: LXF-289
In short: as §1

NCI-H1437 = test system: NCI-H1437
In short: as §1

NCI-H1651 = test system: NCI-H1651
In short: as §1

NCI-H1792 = test system: NCI-H1792
In short: as §1

NCI-H2085 = test system: NCI-H2085
In short: as §1

NCI-H2228 = test system: NCI-H2228
In short: as §1

NCI-H23 = test system: NCI-H23
In short: as §1

NCI-H2405 = test system: NCI-H2405
In short: as §1

NCI-H322M = test system: NCI-H322M
In short: as §1

RERF-LC-KJ = test system: RERF-LC-KJ
In short: as §1

UMC-11 = test system: UMC-11
In short: as §1

`CCCCCCCCCCCC1=C(O)C(=O)C=C(O)C1=O` [Embelin] + Cc1nc(NC(=O)N2CCC[C@H]2C(N)=O)sc1-c1ccnc(C(C)(C)C(F)(F)F)c1 [Alpelisib] (partner 2 µM) gave a relative viability (LU99A; first compound 2.53 µM) of 0.561, a relative viability (LU99A; first compound 8 µM) of 0.496 and a relative viability (LXF-289; first compound 0.08 µM) of 1.03. The relative viability (LXF-289; first compound 0.8 µM) was 1.07, the relative viability (LXF-289; first compound 2.53 µM) was 1.08 and the relative viability (LXF-289; first compound 8 µM) was 1.13. The relative viability (NCI-H1437; first compound 0.08 µM) was 0.916, the relative viability (NCI-H1437; first compound 0.8 µM) was 1.05 and the relative viability (NCI-H1437; first compound 2.53 µM) was 1.32. It also gave a relative viability (NCI-H1437; first compound 8 µM) of 0.697, a relative viability (NCI-H1651; first compound 0.08 µM) of 0.939 and a relative viability (NCI-H1651; first compound 0.8 µM) of 0.971. For the same compound, the relative viability (NCI-H1651; first compound 2.53 µM) was 0.945, the relative viability (NCI-H1651; first compound 8 µM) was 0.873 and the relative viability (NCI-H1792; first compound 0.08 µM) was 0.718. It also gave a relative viability (NCI-H1792; first compound 0.8 µM) of 0.764, a relative viability (NCI-H1792; first compound 2.53 µM) of 0.785 and a relative viability (NCI-H1792; first compound 8 µM) of 0.588. For the same compound, the relative viability (NCI-H2085; first compound 0.08 µM) was 0.944, the relative viability (NCI-H2085; first compound 0.8 µM) was 0.999 and the relative viability (NCI-H2085; first compound 2.53 µM) was 1.11. It also gave a relative viability (NCI-H2085; first compound 8 µM) of 0.999, a relative viability (NCI-H2228; first compound 0.08 µM) of 0.705 and a relative viability (NCI-H2228; first compound 0.8 µM) of 0.781. It also gave a relative viability (NCI-H2228; first compound 2.53 µM) of 0.793, a relative viability (NCI-H2228; first compound 8 µM) of 0.729 and a relative viability (NCI-H23; first compound 0.08 µM) of 0.606. For the same compound, the relative viability (NCI-H23; first compound 0.8 µM) was 0.901, the relative viability (NCI-H23; first compound 2.53 µM) was 0.844 and the relative viability (NCI-H23; first compound 8 µM) was 0.74. The relative viability (NCI-H2405; first compound 0.08 µM) was 0.853, the relative viability (NCI-H2405; first compound 0.8 µM) was 1.11 and the relative viability (NCI-H2405; first compound 2.53 µM) was 0.774. For the same compound, the relative viability (NCI-H2405; first compound 8 µM) was 0.793, the relative viability (NCI-H322M; first compound 0.08 µM) was 0.833 and the relative viability (NCI-H322M; first compound 0.8 µM) was 0.801. For the same compound, the relative viability (NCI-H322M; first compound 2.53 µM) was 0.856, the relative viability (NCI-H322M; first compound 8 µM) was 0.648 and the relative viability (RERF-LC-KJ; first compound 0.08 µM) was 0.856. For the same compound, the relative viability (RERF-LC-KJ; first compound 0.8 µM) was 0.815, the relative viability (RERF-LC-KJ; first compound 2.53 µM) was 1.07 and the relative viability (RERF-LC-KJ; first compound 8 µM) was 0.865. It also gave a relative viability (UMC-11; first compound 0.08 µM) of 0.969, a relative viability (UMC-11; first compound 0.8 µM) of 1.07 and a relative viability (UMC-11; first compound 2.53 µM) of 1.24. It also gave a relative viability (UMC-11; first compound 8 µM) of 1.2.
